Data on two molecules can be found in ChEMBL document CHEMBL5724914, “Linking interpersonal differences in gut microbiota composition and drug biotransformation activity” (2024).

The conditions of data set [1]: human gut metagenome, 24 h, 2 µM.
For data set [2] the following is noted: human gut metagenome, 24 h, 2 µM. This is another data set of the same source.
For data set [3] the following is noted: human gut metagenome, 24 h, 2 µM. This is another data set of the same source.
The conditions of data set [4]: human gut metagenome, 24 h, 2 µM. The source holds these as a separate data set.
Data set [5] can be described thus: The drug is tested on Z-021 corresponding to metagenome with ENA study accession number: PRJEB37062 and ENA sample accession number: ERS12561820 for biotransformation under anaerobic condition. The drug concentrations were measured over 9 timepoints collected between 0 and 24 hours of incubation by liquid-chromatography-coupled mass spectrometry (LC–MS). The note with it: 2 µM.

Data set [6] in a line: The drug is tested on WLS-073 corresponding to human gut metagenome with ENA study accession number: PRJEB37062 and ENA sample accession number: ERS12561749 for biotransformation under anaerobic condition. The drug concentrations were measured over 9 timepoints collected between 0 and 24 hours of incubation by liquid-chromatography-coupled mass spectrometry (LC–MS). The note with it: 2 µM.

Data set [7] in a line: The drug is tested on WLS-170 corresponding to human gut metagenome with ENA study accession number: PRJEB37062 and ENA sample accession number: ERS12561762 for biotransformation under anaerobic condition. The drug concentrations were measured over 9 timepoints collected between 0 and 24 hours of incubation by liquid-chromatography-coupled mass spectrometry (LC–MS). Particulars: 2 µM.

A short description of data set [8]: The drug is tested on WLS-220 corresponding to human gut metagenome with ENA study accession number: PRJEB37062 and ENA sample accession number: ERS12561769 for biotransformation under anaerobic condition. The drug concentrations were measured over 9 timepoints collected between 0 and 24 hours of incubation by liquid-chromatography-coupled mass spectrometry (LC–MS). Particulars: 2 µM.

The nature of data set [9]: The drug is tested on WLS-038 corresponding to human gut metagenome with ENA study accession number: PRJEB37062 and ENA sample accession number: ERS12561745 for biotransformation under anaerobic condition. The drug concentrations were measured over 9 timepoints collected between 0 and 24 hours of incubation by liquid-chromatography-coupled mass spectrometry (LC–MS). Particulars: 2 µM.

A short description of data set [10]: The drug is tested on Z-024 corresponding to pig gut metagenome with ENA study accession number: PRJEB37062 and ENA sample accession number: ERS12561823 for biotransformation under anaerobic condition. The drug concentrations were measured over 9 timepoints collected between 0 and 24 hours of incubation by liquid-chromatography-coupled mass spectrometry (LC–MS). Particulars: 2 µM.

For data set [11] the following is noted: human gut metagenome, 24 h, 2 µM. This is another data set of the same source.
The conditions of data set [12]: human gut metagenome, 24 h, 2 µM. This is another data set of the same source.
Data set [13] in a line: The drug is tested on Z-016 corresponding to mouse gut metagenome with ENA study accession number: PRJEB37062 and ENA sample accession number: ERS12561815 for biotransformation under anaerobic condition. The drug concentrations were measured over 9 timepoints collected between 0 and 24 hours of incubation by liquid-chromatography-coupled mass spectrometry (LC–MS). Particulars: 2 µM.

For data set [14] the following is noted: human gut metagenome, 24 h, 2 µM. The source holds these as a separate data set.
A short description of data set [15]: The drug is tested on WLS-350 corresponding to human gut metagenome with ENA study accession number: PRJEB37062 and ENA sample accession number: ERS12561789 for biotransformation under anaerobic condition. The drug concentrations were measured over 9 timepoints collected between 0 and 24 hours of incubation by liquid-chromatography-coupled mass spectrometry (LC–MS). Particulars: 2 µM.

A short description of data set [16]: The drug is tested on WLS-010 corresponding to human gut metagenome with ENA study accession number: PRJEB37062 and ENA sample accession number: ERS12561743 for biotransformation under anaerobic condition. The drug concentrations were measured over 9 timepoints collected between 0 and 24 hours of incubation by liquid-chromatography-coupled mass spectrometry (LC–MS). The note with it: 2 µM.

Data set [17] can be described thus: The drug is tested on Z-006 corresponding to mouse gut metagenome with ENA study accession number: PRJEB37062 and ENA sample accession number: ERS12561806 for biotransformation under anaerobic condition. The drug concentrations were measured over 9 timepoints collected between 0 and 24 hours of incubation by liquid-chromatography-coupled mass spectrometry (LC–MS). The note with it: 2 µM.

For data set [18] the following is noted: human gut metagenome, 24 h, 2 µM. This is another data set of the same source.
Data set [19] can be described thus: The drug is tested on WLS-027 corresponding to human gut metagenome with ENA study accession number: PRJEB37062 and ENA sample accession number: ERS12561744 for biotransformation under anaerobic condition. The drug concentrations were measured over 9 timepoints collected between 0 and 24 hours of incubation by liquid-chromatography-coupled mass spectrometry (LC–MS). Particulars: 2 µM.

The conditions of data set [20]: human gut metagenome, 24 h, 2 µM. The source holds these as a separate data set.
Note: call rule not given here.

Take `CC12CC3CC(C)(C1)CC(N)(C3)C2` [MEMANTINE]: the “Bacterial Biotransformation” value in data set [1], in [2], in data set [3], in data set [4], in data set [5] and in data set [6] was “Compound NOT metabolized” throughout. In addition, the “Bacterial Biotransformation” value is reported as “Compound metabolized” in data set [7]; “Compound NOT metabolized” in data set [8]; “Compound NOT metabolized” in [9]; “Compound NOT metabolized” in data set [10]; “Compound NOT metabolized” in data set [11]; “Compound NOT metabolized” in [12]. In addition, the “Bacterial Biotransformation” value in [13], in [14], in data set [15], in data set [16], in [17] and in [18] was “Compound NOT metabolized” in each case. Moreover, the “Bacterial Biotransformation” value in data set [19] and in [20] was “Compound NOT metabolized” each time.

On to `CC(N)C12CC3CC(CC(C3)C1)C2` (stereo not given) [RIMANTADINE], for which the “Bacterial Biotransformation” value in data set [1], in [2], in [3], in [4], in data set [5] and in data set [6] was “Compound NOT metabolized” each time. Besides, the “Bacterial Biotransformation” value is on record as “Compound metabolized” in data set [7]; “Compound NOT metabolized” in data set [8]; “Compound NOT metabolized” in [9]; “Compound NOT metabolized” in [10]; “Compound NOT metabolized” in [11]; “Compound NOT metabolized” in data set [12]. Further, the “Bacterial Biotransformation” value in [13], in data set [14], in data set [15], in data set [16], in data set [17] and in data set [18] was “Compound NOT metabolized” each time. The “Bacterial Biotransformation” value in [19] and in [20] was “Compound NOT metabolized” throughout.
